Data as given in patent publication US20170252278A1, “INHIBITION OF MATURATION OF DENTAL BIOFILM AND CARIOGENIC PROPERTIES” (KONINKLIJKE PHILIPS N.V., priority 2014, published 2017).

Tests used:
Format in all cases: cell-based
[1] = system: in vitro oral plaque biofilms; experiment: Microbial composition of biofilms by 16S rDNA sequencing; conditions: for Actinobacillus, share of biofilm composition / Actinomyces, share of biofilm composition / Campylobacter, share of biofilm composition / Fusobacterium, share of biofilm composition / Granulicatella, share of biofilm composition / Haemophilus, share of biofilm composition / Megasphaera, share of biofilm composition / Neisseria, share of biofilm composition / Other taxa, share of biofilm composition / Porphyromonas, share of biofilm composition / Prevotella, share of biofilm composition / Rothia, share of biofilm composition / Solobacterium, share of biofilm composition / Streptococcus, share of biofilm composition / Unclass. Pasteurellaceae, share of biofilm composition / Veillonella, share of biofilm composition: 3-Oxo-N 100 μM, furanones 10 μM
Experimental: DNA was isolated using phenol bead-beating followed by Agowa isolation, following the manufacturers instructions (LGC Genomics, Mag mini kit). Briefly, cells were mechanically disrupted four times at 1200 rpm for two minutes in addition of Tris-saturated Phenol, pH8, 0.1 mm zirconium beads and Mag lysis buffer. The DNA-containing phase was mixed with binding buffer and magnetic beads. DNA concentration was estimated by determining the absorbance at 260 nm using the nanodrop (Isogen, ND-1000).
PCR was performed in a final volume of 25 μl containing 1 μl of each primer ([…]), 1 μl dNTP (10 mM), 2.5 μl 10× DreamTaq Buffer including MgCl2 (Thermo Scientific), 0.2 μl DreamTaq DNA Polymerase (5 u/μ1, Thermo Scientific) and 50 ng of DNA. Initial denaturation was performed at 94° C. for 4 min, followed by 35 cycles of denaturation at 94° C. for 30 s, 54° C. annealing for 1 min, 72° C. for 1 min primer extension and a final extension at 72° C. for 5 min. Product formation was confirmed by electrophoresis of 5 μl on a 1% (w/v) agarose gel (Sphearo Q, Leiden, The Netherlands) stained with ethidium bromide.
These samples were analyzed by 16S rDNA Illumina sequencing at TNO Zeist (Netherlands).
Table 3. Microbial composition of biofilms grown for 48 (Table 3A) or 96 h (Table 3B) in the presence of different QS inhibitors. Composition was determined by 16S rDNA sequencing. The composition of the original inoculum used for all biofilms was also determined. “Unclass.” means: unclassified.

[2] = system: in vitro oral plaque biofilms; experiment: In vitro oral plaque biofilm formation in the Amsterdam Active Attachment Model, CFU determination; conditions: for in vitro oral plaque biofilm formation, Colony Forming Units: FIG. 1
Experimental: Stimulated saliva, used as inoculum, was collected on ice from ten donors. Saliva was donated 24 h after last brushing. The saliva was diluted 2-fold with 60% sterile glycerol, aliquoted and stored at −80° C. Before use, a pooled sample was prepared by mixing 200 μl of thawed saliva of each donor and vortexing for 30 seconds. In vitro oral plaque biofilms were inoculated 1:50 with pooled saliva.
In vitro oral plaque biofilms were grown in the Amsterdam Active Attachment Model (AAA-model, Exterkate et al. (2010)), assembled with glass coverslips (diameter 12 mm; Menzel, Braunschweig, Germany). The model was inoculated for 8 h with pooled saliva in buffered semi-defined McBain medium (2.5 g/l mucin (Sigma, St Louis, Mo.), 2.0 g/l Bacto peptone (Difco, Detroit, Mich.), 2.0 g/l Trypticase peptone (BBL, Cockeysville, Md.), 1.0 g/l yeast extract (BD Diagnostic Systems, Sparks, Md.), 0.35 g/l NaCl, 0.2 g/l KCl, 0.2 g/l CaCl2, 1 mg/l hemin (Sigma, St. Louis, Mo., USA), and 2 mg/l vitamin K1 (McBain et al. (2005)), with 50 mmol/1 PIPES at pH 7.0), with 0.2% sucrose.
In vitro oral plaque biofilms were grown in the AAA-model for 48-96 h in the presence of the compounds tested. The model was inoculated with saliva and incubated anaerobically at 37° C. for 8 hours to allow microbes to attach to the glass coverslips. After 8 hours of attachment, the inoculation medium was refreshed and in vitro oral plaque biofilms were grown for 16 hours. This refreshment routine was repeated daily until the day of harvesting.
In vitro oral plaque biofilms were harvested by transferring the glass coverslips into 2 ml phosphate buffered saline (PBS). The biofilms were dispersed using a Vibracell VCX130 sonicator with a maximum of 130 Watts and 20 kHz (Sonics & Materials, Newtown, USA). Bio films were sonicated on ice for 1 minute with a pulse rate of 50% and pulses of 1 second. Vibration amplitude was set to 40%.
To estimate the amount of in vitro oral plaque biofilm formation, total anaerobic colony forming units were determined. Briefly, serial dilutions of the dispersed bio films were made and plated on tryptic soy agar blood plates. Plates were subsequently incubated anaerobically for 96 h at 37° C. and colony forming units were determined by counting the number of colonies for each dilution.

[3] = system: in vitro oral plaque biofilms; experiment: Lactic acid production assay of in vitro oral plaque biofilms
Experimental: All compounds tested of Table 1 were obtained from Sigma Aldrich. All compounds of Table 2, except 3-oxo-N(2oxocyclohexyl)dodecanamide, were kindly provided by M. Meijler, University of the Negev, Israel. The compounds were dissolved in DMSO and stored at −20 C. The compounds were continuously present at the indicated concentrations during biofilm growth, but not during further phenotypic analysis, i.e. lactate production.
(§1) To estimate the cariogenic phenotype, lactic acid production of the in vitro oral plaque biofilms was determined prior to harvesting (Exerkate et al 2010). In short, the biofilms on coverslips were placed in a 24-well plate containing 1.5 ml of BPW with 0.2% sucrose. Lactic acid formation was allowed for 3 hr at 37° C. under anaerobic conditions. The total amount of lactic acid produced in this period was analyzed using a colorimetric assay described previously (van Loveren et al. (2000)) and expressed as mM lactic acid, and as μM lactic acid per 1×10^6 CFU.
Biofilms were grown for 48 h in buffered McBain medium supplemented with 0.2% sucrose in the presence of 100 μM of one of the compounds. Medium was refreshed twice every day. […]

[4] = system: in vitro oral plaque biofilms; experiment: Lactic acid production of biofilms grown with 3-oxo-N(2-oxocyclohexyl)dodecanamide and C12-HSL (interference test); conditions: all concentrations (25 or 100 μM), with 0, 25 or 100 μM C12-HSL; 48 h growth
Experimental: as §1
In this experiment the effect of the quorum sensing molecule C12-HSL on the lactate reducing activity of 3-Oxo-N-(2-oxocyclohexyl)dodecanamide was tested. Biofilms were grown for 48 h in buffered McBain medium supplemented with 0.2% sucrose, in the presence of 0, or 25 or 100 μM 3-oxo-N(2-oxocyclohexyl)dodecanamide and 0, or 25 or 100 μM of C12-HSL. Medium was refreshed twice every day. After 48 h of growth, biofilms were transferred to BPW with 0.2% sucrose, and biofilms were allowed to produce lactate for 3 h.

## CCCCCCCCCC(=O)CC(=O)NC1CCCCC1=O (stereo not shown) [3-Oxo-N, 3-oxo-N-(2-oxocyclohexyl)dodecanamide]
[1]; 100 μM, 48 h
  Streptococcus reduced versus control: more than 30%
  Veillonella more abundant than in control: 10%
  change in Actinobacillus species versus control: increase
[1]; 48 h
  Actinobacillus, share of biofilm composition: 27.6%
  Actinomyces, share of biofilm composition: 0.0%
  Campylobacter, share of biofilm composition: 1.1%
  Fusobacterium, share of biofilm composition: 0.0%
  Granulicatella, share of biofilm composition: 0.0%
  Haemophilus, share of biofilm composition: 0.2%
  Megasphaera, share of biofilm composition: 0.0%
  Neisseria, share of biofilm composition: 0.0%
  Other taxa, share of biofilm composition: 0.1%
  Porphyromonas, share of biofilm composition: 0.0%
  Prevotella, share of biofilm composition: 0.0%
  Rothia, share of biofilm composition: 0.0%
  Solobacterium, share of biofilm composition: 0.0%
  Streptococcus, share of biofilm composition: 34.3%
  Unclass. Pasteurellaceae, share of biofilm composition: 0.6%
  Veillonella, share of biofilm composition: 36.0%
[1]; 96 h
  Actinobacillus, share of biofilm composition: 12.0%
  Actinomyces, share of biofilm composition: 0.0%
  Campylobacter, share of biofilm composition: 7.2%
  Fusobacterium, share of biofilm composition: 0.0%
  Granulicatella, share of biofilm composition: 0.0%
  Haemophilus, share of biofilm composition: 0.1%
  Megasphaera, share of biofilm composition: 0.0%
  Neisseria, share of biofilm composition: 0.0%
  Other taxa, share of biofilm composition: 0.3%
  Porphyromonas, share of biofilm composition: 0.0%
  Prevotella, share of biofilm composition: 0.0%
  Rothia, share of biofilm composition: 0.0%
  Solobacterium, share of biofilm composition: 0.0%
  Streptococcus, share of biofilm composition: 28.7%
  Unclass. Pasteurellaceae, share of biofilm composition: 0.0%
  Veillonella, share of biofilm composition: 51.7%
[2]
  inhibitory concentration (concentration that completely inhibits oral plaque biofilm growth): above 800 μM
[2]; 100 μM, control 1.5×10^9 CFU
  in vitro oral plaque biofilm formation, Colony Forming Units: up to 6.6×10^8 CFU
[2]; Example 2, 100 μM, 48 h
  biofilm production (visible amount of biofilm): normal amounts of biofilm
[2]; all the other concentrations (below 100 μM), same as control
  in vitro oral plaque biofilm formation, Colony Forming Units: 1.5×10^9 CFU
[2]; highest concentration tested (100 μM)
  effect on in vitro oral plaque biofilm formation: slightly affected
[3]; 10 μM
  lactate production (FIG. 4A): significantly reduces
[3]; 100 μM
  lactate production (FIG. 4A): almost completely blocked
[3]; 100 μM or 10 μM
  lactate production corrected for CFU (FIG. 4B): still lower
[3]; 100 μM, biofilms grown 48 h, 3 h in BPW with 0.2% sucrose
  total lactic acid production per biofilm (FIG. 2): reduced lactic acid production
[3]; 96 hours of growth
  lactate production after 96 hours of growth: the reducing effect was still present
[4]
  total lactic acid production per biofilm vs control (FIG. 3): statistical significant difference
